# Columns and labels:
# IL-4 = molecular target: T1, IL-4 (Homo sapiens, UniProt P05112); assay: IL-4 dependent TF-1.8 cell proliferation (luciferase); type: cell-based
# T1 construct: made in house
# T1 sequence (P05112 25-153): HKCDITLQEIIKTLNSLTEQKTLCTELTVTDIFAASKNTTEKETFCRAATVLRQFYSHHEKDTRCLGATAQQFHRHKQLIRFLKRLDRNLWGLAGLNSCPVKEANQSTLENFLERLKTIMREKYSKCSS
# Excerpt: PPS inhibited the proliferation of a human IL-4 responsive cell line. This occurs at very low doses and is not due to a toxic effect of the pentosan polysulfate because other, similarly sulfated polysaccharides, at the same concentrations of IL-4 and polysaccharide have no effect. These experiments utilize the TF-1.8 cells. TF-1.8 cells are a subclone of the TF-1 cells that have been selected for growth in IL-4 or IL-5. TF-1 cells were originally established from a bone marrow sample from a person with severe pancytopenia. These cells are dependent on IL-3 or GM-CSF for long term growth and are responsive to a variety of cytokines including IL-4, […].
# TF-1.8 cells have been transfected with the firefly luciferase gene contained in the expression vector, pPGK-puromycin-luciferase (Coombe et al, 1998, supra). […] The cells are counted with a Coulter Z2 Particle Counter and Size Analyzer (Coulter Electronics, England) and routinely 2.5×10^4 cells are added to microplate wells that contain either no IL-4 (negative control) or various dilutions of IL-4. When the effect of PPS, or other sulfated polysaccharides is to be measured, the wells also contain various concentrations of these molecules. […]
# The size of the sulfated xylose polysaccharides is also an important component of its anti-IL-4 activity. […] Light emissions are detected on a Victor 1420 Multi-label counter (Wallac, Turku, Finland). […]
# [1] = system: guinea pigs sensitized with ovalbumin (OVA) and challenged intranasally with OVA; assay: Allergic rhinitis model in the guinea pig (OVA); type: in vivo
# Procedure: An allergic rhinitis model in the guinea pig was used. The guinea pigs are sensitized to ovalbumin (OVA) twice (on days 0 and 7) by an intraperitoneal injection of 0.5 ml saline containing 100 mg Al(OH)3 and 2 μg OVA. Three weeks after the last sensitization, animals are anaesthetized and the exposure of the nasal cavity to allergen is performed by dropping OVA solution at 20 mg/ml into bilateral nasal cavities. For the negative control the animals receive sensitization and challenge with saline. The animals are pretreated with either vehicle or drug (pentosan polysulfate or Budesonide) 30 min prior to intranasal instillation of OVA. Vehicle or drugs are administered, 25 μl-50 μl/nostril. A comparison of the pentosan polysulfate with Budesomde, as the reference compound, is included. Animals are terminated and all parameters measured eight hours after the provocation.
# The nasal mucosal barrier permeability is assessed by measuring the leakage of protein-rich and non-sieved plasma into the nasal cavities. The amount of extravasated plasma is indicated as nasal lavage levels of total protein or albumin. Nasal lavage fluid is collected by gently rinsing the nasal cavities with phosphate buffered saline. The cells in this fluid are centrifuged and resuspended in phosphate buffered saline and counted using a semiautomated haematology analyzer. The cell composition of the nasal lavage is determined after a cytospin and staining with May Grynwald Giemsa.
# human IL-8 = molecular target: T2, human IL-8 (Homo sapiens, UniProt P10145); assay: IL-8 induced migration of DMSO treated HL-60 cells (chemotaxis); type: cell-based; conditions: 50 μg/ml, IL-8 20 ng/ml
# T2 sequence (P10145 21-99): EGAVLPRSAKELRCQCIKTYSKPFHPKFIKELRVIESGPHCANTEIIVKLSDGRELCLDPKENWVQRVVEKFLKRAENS
# Procedure: Chemokines known to play an important role in mediating the inflammation associated with COPD include IL-8, MCP-1 and MIP-1α (Barnes 2004, supra). […] These experiments were performed using DMSO treated human promyelocytic HL-60 cells. These cells were derived from a patient with acute promyelocytic leukemia. The cells were treated with DMSO (1.2%) for 4 days before being used in the experiments. The chemotaxis assays were performed in 96-well Costar chemotaxis plates consisting of a bottom chamber to which was added the human IL-8 (+/−inhibitor) and then cells in RPMI and 1% v/v FCS were added to a top chamber and the plate was incubated at 37° C. for 1 hour to allow cells to move from the top chamber into the bottom. The number of cells migrating into the bottom chamber was quantified by labeling with AQUEOUS ONE (20 μl/well) for 1.75 hours before absorbance at 490 nm is read. IL-8 was used at a final concentration of 20 ng/ml and the inhibitors were the sulfated xylan pentasaccharide (10 and 50 μg/ml) and pentosan polysulfate (10 and 50 μg/ml). Cell migration is compared with that seen with no IL-8 or with IL-8 and no inhibitor.
# [2] = relative to heparin; cited from earlier work
substance,measurement,setting,value
Pentosan polysulfate [PPS],Inhibition of IL-4 dependent proliferation of TF-1.8 cells (in words),"IL-4; dose-response, FIG. 5",markedly inhibits
same,Percentage Inhibition of IL-4 induced TF-1.8 cell proliferation,"IL-4; inhibitor 5.0 μg/ml, IL-4 2.5 ng/ml, 48 hours",58%
same,Leukocyte infiltration into nasal lavage fluid (total white cell numbers),"[1]; 8 hours after intranasal OVA challenge, FIG. 12",inhibited leukocyte infiltration at all the concentrations tested
same,Protein content of nasal lavage fluid (plasma exudation),"[1]; 8 hours after intranasal OVA challenge, drug intranasal 30 min before, FIG. 11",significantly reduced
same,Cellular infiltrate in nasal lavage fluid,"[1]; drugs at 5 mg/kg, FIG. 13",markedly reduced
same,Inhibition of cell migration triggered by IL-8,human IL-8,74%
same,Anticoagulant activity as fraction of that of heparin,[2],about 1/15
